Measurements reported in US10221162B2, “Triazole agonists of the APJ receptor” (priority 2015, dated 2019).
pEC50: −log10 of the molar value. Read-outs that look alike come from different tables or passages of the source.

Legend:
human APJ receptor = human APJ receptor (Homo sapiens (Human), UniProt P35414); test: [35S]GTPγS binding assay (hAPJ SPA); assay type: biochemical
Procedure: The human APJ receptor was cloned by polymerase chain reaction and the gene encoding the receptor was subcloned in pFLAG-CMV™-3 expression vector (Sigma, Saint Louis, Mo. USA) in-house at Amgen. A GTPγS binding assay was performed on membranes prepared from CHO cells stably expressing human APJ receptor. The optimum experimental conditions for the concentrations of GDP, MgCl2, and NaCl in the assay buffer were initially determined. The assay was performed in assay buffer [20 mM HEPES, pH 7.5, 5 mM MgCl2, and 0.1% (w/v) BSA with 200 mM NaCl, 3 μM GDP] and membranes expressing human APJ receptor/well along with WGA PS beads. The reaction was initiated by addition of 0.2 nM [^35S]GTPγS (Perkin Elmer Life and Analytical Sciences, Waltham USA) in the absence or presence of various ligands and incubated at RT for 90 min. […] All the results presented are means of several independent experiments and analyzed by non-linear regression methods using commercially available program Prism (GraphPad, San Diego, Calif.) to obtain EC50 detailed in Table 58.

[1] = tested on: isolated perfused rat hearts; test: Ex vivo isolated perfused rat heart (Langendorff) assay; conditions: percent change; for Isolated Heart Assay dP/dtmax (%): LV contractility; for Isolated Heart Assay dP/dtmin (%): LV relaxation
heart failure rat model = test: In vivo cardiac contractility in heart failure (MI) rat model; conditions: heart failure rats; for MI Rat Model dP/dtmax (%) / cardiac contractility as measured by dP/dt: acute administration for 30 min; for cardiac contractility as measured by dP/dt: result in words
Procedure: Male Lewis rats (Charles River, USA) at 2-3 months of age were used for the study. […] APJ agonists were administered dose dependently acutely for a period of 30 min.
The interaction between […] (ACE2) and Apelin biology is complicated. To investigate the interaction between the Apelin-APJ and ACE signalling pathways, we examined the improvement in cardiac function with APJ small molecule agonists in the presence of ACE inhibitor captopril in heart failure rats in vivo.

[2] = membranes from CHO cells stably expressing human APJ receptor, [35S]GTPγS, read-out: Activity hAPJ SPA EC50 IP

human APJ receptor, sequence (P35414 whole entry): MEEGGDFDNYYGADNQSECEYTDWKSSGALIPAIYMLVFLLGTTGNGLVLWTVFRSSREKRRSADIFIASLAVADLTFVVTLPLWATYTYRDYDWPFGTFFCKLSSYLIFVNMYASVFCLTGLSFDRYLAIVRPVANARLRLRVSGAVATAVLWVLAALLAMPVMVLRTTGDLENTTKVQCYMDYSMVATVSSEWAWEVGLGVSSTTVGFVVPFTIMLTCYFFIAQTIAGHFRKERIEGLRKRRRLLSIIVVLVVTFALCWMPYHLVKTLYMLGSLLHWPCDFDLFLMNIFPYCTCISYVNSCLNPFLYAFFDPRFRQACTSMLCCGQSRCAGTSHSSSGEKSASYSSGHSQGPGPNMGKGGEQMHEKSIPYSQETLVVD

Structure (SMILES) | Isolated Heart Assay dP/dtmax (%) [1] [%] | Isolated Heart Assay dP/dtmin (%) [1] [%] | further results
COc1cccc(OC)c1-n1c(NS(=O)(=O)[C@@H](C)[C@H](O)c2ccc(C#N)cc2)nnc1-c1cncc(C)c1.COc1cccc(OC)c1-n1c(NS(=O)(=O)[C@H](C)[C@@H](O)c2ccc(C#N)cc2)nnc1-c1cncc(C)c1 (mixture of isomers) [Example 247.0, (1R,2S)-1-(4-cyanophenyl)-N-(4-(2,6-dimethoxyphenyl)-5-(5-methyl-3-pyridinyl)-4H-1,2,4-triazol-3-yl)-1-hydroxy-2-propanesulfonamide and (1S,2R)-1-(4-cyanophenyl)-N-(4-(2,6-dimethoxyphenyl)-5-(5-methyl-3-pyridinyl)-4H-1,2,4-triazol-3-yl)-1-hydroxy-2-propanesulfonamide] |  |  | pEC50 (human APJ receptor): 8.42
COc1cccc(OC)c1-n1c(NS(=O)(=O)[C@H](C)[C@@H](C)c2ncc(Cl)cn2)nnc1-c1cccnc1 (racemic) [Example 694.0, (2R,3S)-3-(5-chloropyrimidin-2-yl)-N-(4-(2,6-dimethoxyphenyl)-5-(pyridin-3-yl)-4H-1,2,4-triazol-3-yl)butane-2-sulfonamide or (2S,3R)-3-(5-chloropyrimidin-2-yl)-N-(4-(2,6-dimethoxyphenyl)-5-(pyridin-3-yl)-4H-1,2,4-triazol-3-yl)butane-2-sulfonamide] | 18.0 | 32.0 | MI Rat Model dP/dtmax (%) (heart failure rat model): 8%
COc1cccc(OC)c1-n1c(NS(=O)(=O)[C@@H](C)[C@H](C)c2ncc(F)cn2)nnc1-c1cccnc1 (single isomer, unassigned) [Example 184.0, (2R,3S)-N-(4-(2,6-dimethoxyphenyl)-5-(3-pyridinyl)-4H-1,2,4-triazol-3-yl)-3-(5-fluoro-2-pyrimidinyl)-2-butanesulfonamide or (2S,3R)-N-(4-(2,6-dimethoxyphenyl)-5-(3-pyridinyl)-4H-1,2,4-triazol-3-yl)-3-(5-fluoro-2-pyrimidinyl)-2-butanesulfonamide] | 14.5 | 14.0 | 
COc1cccc(OC)c1-n1c(NS(=O)(=O)[C@@H](C)[C@H](OC)c2ncc(F)cn2)nnc1-c1cncc(C)c1 (single isomer, unassigned) [Example 242.0] | 5.0 | −2.7 | 
COc1cccc(OC)c1-n1c(NS(=O)(=O)[C@@H](C)[C@H](OC)c2ncc(F)cn2)nnc1-c1cccnc1 (single isomer, unassigned) [Example 244.0] | 14.0 | 15.0 | 
COc1cccc(-c2nnc(NS(=O)(=O)[C@@H](C)[C@H](O)c3ccccc3OC)n2-c2c(OC)cccc2OC)n1 (single isomer, unassigned) [Example 324.0] |  |  | pEC50 (human APJ receptor; [2]): 7.85
COc1cccc(-c2nnc(NS(=O)(=O)[C@@H](C)[C@H](O)c3ccccc3OC)n2-c2c(OC)cccc2OC)n1 (single isomer, unassigned) [Example 325.0] |  |  | pEC50 (human APJ receptor; [2]): 6.77
COc1cccc(-c2nnc(NS(=O)(=O)[C@@H](C)[C@H](O)c3ccccc3OC)n2-c2c(OC)cccc2OC)n1 (single isomer, unassigned) [Example 326.0] |  |  | pEC50 (human APJ receptor; [2]): 7.66
COc1cccc(-c2nnc(NS(=O)(=O)[C@@H](C)[C@H](O)c3ccccc3OC)n2-c2c(OC)cccc2OC)n1 (single isomer, unassigned) [Example 327.0] |  |  | pEC50 (human APJ receptor; [2]): 8.70
COc1cccc(OC)c1-n1c(NS(=O)(=O)[C@H](C)[C@@H](OC)c2ccc(Cl)cn2)nnc1-c1cccnc1 (single isomer, unassigned) [Example 531.0, (1S,2R)-1-(5-chloro-2-pyridinyl)-N-(4-(2,6-dimethoxyphenyl)-5-(3-pyridinyl)-4H-1,2,4-triazol-3-yl)-1-methoxy-2-propanesulfonamide or (1R,2S)-1-(5-chloro-2-pyridinyl)-N-(4-(2,6-dimethoxyphenyl)-5-(3-pyridinyl)-4H-1,2,4-triazol-3-yl)-1-methoxy-2-propanesulfonamide] | 4.1 | 1.9 | 
COc1cccc(OC)c1-n1c(NS(=O)(=O)[C@H](C)[C@@H](OC)c2ncc(Cl)cn2)nnc1-c1cncc(C)c1 (single isomer, unassigned) [Example 557.0] | 17.0 | 20.0 | MI Rat Model dP/dtmax (%) (heart failure rat model): No effect
CCOc1cccc(OC)c1-n1c(NS(=O)(=O)[C@@H](C)[C@H](OC)c2ncc(C)cn2)nnc1-c1cccc(OC)n1 (single isomer, unassigned) [Example 665.0, (1R,2S,P)—N-(4-(2-ethoxy-6-methoxyphenyl)-5-(6-methoxy-2-pyridinyl)-4H-1,2,4-triazol-3-yl)-1-methoxy-1-(5-methyl-2-pyrimidinyl)-2-propanesulfonamide or (1R,2S,M)-N-(4-(2-ethoxy-6-methoxyphenyl)-5-(6-methoxy-2-pyridinyl)-4H-1,2,4-triazol-3-yl)-1-methoxy-1-(5-methyl-2-pyrimidinyl)-2-propanesulfonamide] |  |  | pEC50 (human APJ receptor; [2]): 8.41
COc1cnc([C@H](O)[C@@H](C)S(=O)(=O)Nc2nnc(-c3cccnc3)n2-c2c(OC)cccc2OC)cn1 (single isomer, unassigned) [Example 706.0, (1S,2R)-N-(4-(2,6-dimethoxyphenyl)-5-(3-pyridinyl)-4H-1,2,4-triazol-3-yl)-1-hydroxy-1-(5-methoxy-2-pyrazinyl)-2-propanesulfonamide or (1R,2S)-N-(4-(2,6-dimethoxyphenyl)-5-(3-pyridinyl)-4H-1,2,4-triazol-3-yl)-1-hydroxy-1-(5-methoxy-2-pyrazinyl)-2-propanesulfonamide] | 9.1 | 4.0 | 
COc1ncnc(OC)c1-n1c(NS(=O)(=O)[C@@H](C)[C@H](OC)c2ccc(Cl)cn2)nnc1-c1cccnc1 (single isomer, unassigned) [Example 711.0, (1R,2S)-1-(5-chloro-2-pyridinyl)-N-(4-(4,6-dimethoxy-5-pyrimidinyl)-5-(3-pyridinyl)-4H-1,2,4-triazol-3-yl)-1-methoxy-2-propanesulfonamide or (1S,2R)-1-(5-chloro-2-pyridinyl)-N-(4-(4,6-dimethoxy-5-pyrimidinyl)-5-(3-pyridinyl)-4H-1,2,4-triazol-3-yl)-1-methoxy-2-propanesulfonamide] | 9.4 | 1.1 | 
C[C@H](CS)C(=O)N1CCC[C@H]1C(=O)O [Captopril] |  |  | improvement in contractility or ejection fraction (heart failure rat model; captopril alone, acute settings): does not show a marked improvement in contractility or ejection fraction
COc1cccc(-c2nnc(NS(=O)(=O)[C@@H](C)[C@H](OC)c3ncc(C)cn3)n2-c2c(OC)cccc2OC)n1 [Example 27.0, (1R,2S)—N-(4-(2,6-dimethoxyphenyl)-5-(6-methoxypyridin-2-yl)-4H-1,2,4-triazol-3-yl)-1-methoxy-1-(5-methylpyrimidin-2-yl)propane-2-sulfonamide] |  |  | cardiac contractility as measured by dP/dt (heart failure rat model): increase in cardiac contractility
CCO[C@H](c1ncc(C)cn1)[C@H](C)S(=O)(=O)Nc1nnc(-c2cccnc2)n1-c1c(OC)cccc1OC [Example 109.0, (1R,2S)-N-(4-(2,6-dimethoxyphenyl)-5-(pyridin-3-yl)-4H-1,2,4-triazol-3-yl)-1-ethoxy-1-(5-methylpyrimidin-2-yl)propane-2-sulfonamide] |  |  | cardiac contractility as measured by dP/dt (heart failure rat model): increase in cardiac contractility
COc1cccc(OC)c1-n1c(NS(=O)(=O)[C@@H](C)[C@H](O)c2ncc(C)cn2)nnc1-c1cncc(C)c1 [Example 371.0, (1R,2S)—N-(4-(2,6-dimethoxyphenyl)-5-(5-methylpyridin-3-yl)-4H-1,2,4-triazol-3-yl)-1-hydroxy-1-(5-methylpyrimidin-2-yl)propane-2-sulfonamide] |  |  | cardiac contractility as measured by dP/dt (heart failure rat model): increase in cardiac contractility
COc1cccc(OC)c1-n1c(NS(=O)(=O)[C@@H](C)[C@H](C)c2ncc(C)cn2)nnc1-c1cccnc1 [Example 586.0, (2S,3R)—N-(4-(2,6-dimethoxyphenyl)-5-(3-pyridinyl)-4H-1,2,4-triazol-3-yl)-3-(5-methyl-2-pyrimidinyl)-2-butanesulfonamide] |  |  | cardiac contractility as measured by dP/dt (heart failure rat model): increase in cardiac contractility
